Measurements as given in patent US20240217951A1, “PCSK9 INHIBITORS AND METHODS OF USE THEREOF” (AstraZeneca AB, priority 2022, published 2024).

Tests used:
[1] = target: GSK3β (Glycogen synthase kinase-3 beta) (Homo sapiens, UniProt P49841); test: Assay 6 - GSK3β assay (ThermoFisher Z-Lyte); format: biochemical; conditions: geometric mean; ATP Conc: 10 μM; read-out: Assay 6 (GSK3β FRET-Z-Lyte CR) GMean IC50 (μM) ATP Conc: 10
Experimental: Assay 6—GSK3β Assay (ThermoFisher Assay)
This assay measures the activity of the compounds at GSK3β (Glycogen synthase kinase-3 beta).
The test compounds were screened in 1% DMSO (final) in the well. For 10 point titrations, 3-fold serial dilutions are conducted from the starting concentration of 10 μM.
Bar-coded Corning, low volume NBS, black 384-well plate • 1. 2.5 μL—4× Test Compound or 100 nL 100× plus 2.4 μL kinase buffer • 2. 5 μL—2× Peptide/Kinase Mixture • 3. 2.5 μL—4×ATP Solution • 4. 30-second plate shake • 5. 60-minute Kinase Reaction incubation at room temperature • 6. 5 μL—Development Reagent Solution • 7. 30-second plate shake • 8. 60-minute Development Reaction incubation at room temperature • 9. Read on fluorescence plate reader and analyse the data
In step 2, the 2×GSK3β (GSK3 beta)/Ser/Thr (Glycogen synthase kinase-3 beta/Serine/Threonine) 09 mixture is prepared in 50 mM HEPES (4-(2-hydroxyethyl)-1-piperazineethanesulfonic acid) pH 7.5, 0.01% BRIJ-35, 10 mM MgCl2, 1 mM EGTA (egtazic acid). The final 10 μL Kinase Reaction consists of 0.22-0.92 ng GSK3β (GSK3 beta) and 2 μM Ser/Thr 09 in 50 mM HEPES pH 7.5, 0.01% BRIJ-35, 10 mM MgCl2, 1 mM EGTA.
In step 3 the ATP Solution is diluted to a 4× working concentration in Kinase Buffer (50 mM HEPES pH 7.5, 0.01% BRIJ-35, 10 mM MgCl2, 1 mM EGTA).
In Step 6 the Development Reagent is diluted 1:512 in Development Buffer (10× Novel PKC Lipid Mix: 2 mg/mL Phosphatidyl Serine, 0.2 mg/mL DAG in 20 mM HEPES, pH 7.4, 0.3% CHAPS).
SelectScreen® Kinase Profiling Service uses XLfit from IDBS. The dose response curve is curve fit to model number 205 (sigmoidal dose-response model).

[2] = target: T1, potassium ion channel hERG (human Ether-á-go-go-Related Gene) (Homo sapiens, UniProt Q12809); test: Assay 5 - hERG assay (SyncroPatch 384PE patch clamp, CHO cells); format: cell-based; conditions: geometric mean; CHO cells over-expressing hERG; read-out: Assay 5 (hERG Hu CHO IF EPh CR-Syncro) GMean IC50
T1 construct: expressed in transfected cells; host or cells: Chinese hamster ovary K1 (CHO)
Experimental: Assay 5—hERG Assay (Human Ether-á-go-go-Related Gene)
This assay (human Ether-á-go-go-Related Gene) measures activity of the compounds at the potassium ion channel hERG (human Ether-á-go-go-Related Gene).
Experiments were performed on the SyncroPatch 384PE high throughput patch clamp platform at room temperature and medium resistance chips with 4 patch holes per site. Chinese hamster ovary K1 (CHO) cell lines over-expressing the ion channel of choice (hERG) were used in assay-ready format and kept in liquid nitrogen or were used from live culture. Cells were either thawed and diluted in HBSS or were detached from flasks and resuspended in HBSS. HBSS comprised 140 mM NaCl, 4 mM KCl, 10 mM HEPES and 5 mM Glucose (pH7.4). The internal patch clamp solution was KF 120 mM, KCl 20 mM, HEPES 10 mM, EGTA 10 mM, and 25 PM Escin (pH 7.2). After the sealing process was complete, the external solution was exchanged for external patch clamp solution comprising NaCl 80 mM, KCl 4 mM, HEPES 10 mM, CaCl2 2 mM, MgCl2 1 mM, glucose 5 mM, and NMDG 60 mM (pH 7.4). All solutions were stored at room temperature, except Escin, which was stored at 4° C. All test compounds were dispensed in greiner-bio 384 well plates and tested in a 6 point cumulative assay (final DMSO concentration 0.33%). Only wells that passed previously agreed acceptance criteria for this platform were used in this analysis (30 MegaOhm seal resistance, Z prime >0.4 and current size >0.2 nA).

[3] = target: T2, PCSK9 (Homo sapiens, UniProt Q8NBP7, G670E/V474I); test: biochemical
[4] = target: T2, PCSK9; test: Assay 3 - PCSK9 LDL-C uptake assay in HepG2 cells; format: cell-based; parameters: TEV cleavage site (C); His6 (C); host or cells: added to HepG2 cells (ATCC #HB-8065); conditions: 125 nM PCSK9, pHrodo Red-LDL, read-out: Assay 3 LDL uptake potency
Excerpt: Assay 3—PCSK9 LDL-C Uptake Assay
This assay measures for PCSK9 antagonist activity based on a test compound's capacity to restore LDL-C-uptake in HepG2 cells. The assay is based on exogenous PCSK9 and LDL-C complexed with a pH-sensitive dye. Outside the cells, at neutral pH, the pHrodo Red-LDL is dimly fluorescent but upon LDLR mediated endocytosis it fluoresces brightly. PCSK9 traffics the LDLR to intracellular degradation and reduces uptake of LDL-C. Inhibition of PCSK9 reduces LDLR degradation and the increased LDL-C uptake is quantified by fluorescence microscopy.
Preparation of Assay Reagents
Cell medium: MEM supplemented with 10% FBS, 1×NEAA and Sodium Pyruvate Assay medium: OptiMem supplemented with penicillin/streptomycin
Cells: HepG2 (ATCC #HB-8065)
Step by Step Protocol for Running the Assay:
• 1. Cryopreserved HepG2 cells were thawed in assay medium and centrifuged for 5 min at 250 g. Supernatant was discarded and the cell pellet resuspended in cell medium and counted with a Nucleocounter. Cells were again centrifuged 5 min at 250 g and the pellet was resuspended to 500000 cells/mL in assay medium. • 2. 20 μL of above cell mix was dispensed into black pclear TC treated 384 well plates with Multidrop Combi and left at room temperature for 20 minutes. • 3. Plates were incubated at 37° C., 5% CO2 for 24 h
• 1. Test compounds were prepared in concentration response in DMSO with a half-log dilution factor in DMSO in Echo 384 LDV plates starting at 10 mM. • 2. 30 nL of above test compounds were dispensed with Echo 655 to cells for a top concentration of 10 μM • 3. 10 μL PCSK9 in assay medium was dispensed to cells with Multidrop Combi for 125 nM final concentration in the wells. • 4. Plates were incubated at 37° C., 5% CO2 for 24 h
• 1. 10 μL pHrodo Red-LDL in assay medium was dispensed to cells with Multidrop Combi for 6 μg/mL • 2. Plates were incubated at 37° C., 5% CO2 and imaged with the Incucyte S3 after 4 h and 24 h
Image data was processed using Incucyte 2021, a software to identify cells and red fluorescent intensity. Screener was used to further process data. Data was normalized as % effect of the signal between median values of the on-plate controls of DMSO and 100 nM Evolocumab according to the formula % effect=−100*(x−DMSO)/(Evolocumab−DMSO) where x equals the measured signal. Concentration response data of the normalized values were fitted using a four-parameter logistic fit.

T1 sequence (Q12809 whole entry): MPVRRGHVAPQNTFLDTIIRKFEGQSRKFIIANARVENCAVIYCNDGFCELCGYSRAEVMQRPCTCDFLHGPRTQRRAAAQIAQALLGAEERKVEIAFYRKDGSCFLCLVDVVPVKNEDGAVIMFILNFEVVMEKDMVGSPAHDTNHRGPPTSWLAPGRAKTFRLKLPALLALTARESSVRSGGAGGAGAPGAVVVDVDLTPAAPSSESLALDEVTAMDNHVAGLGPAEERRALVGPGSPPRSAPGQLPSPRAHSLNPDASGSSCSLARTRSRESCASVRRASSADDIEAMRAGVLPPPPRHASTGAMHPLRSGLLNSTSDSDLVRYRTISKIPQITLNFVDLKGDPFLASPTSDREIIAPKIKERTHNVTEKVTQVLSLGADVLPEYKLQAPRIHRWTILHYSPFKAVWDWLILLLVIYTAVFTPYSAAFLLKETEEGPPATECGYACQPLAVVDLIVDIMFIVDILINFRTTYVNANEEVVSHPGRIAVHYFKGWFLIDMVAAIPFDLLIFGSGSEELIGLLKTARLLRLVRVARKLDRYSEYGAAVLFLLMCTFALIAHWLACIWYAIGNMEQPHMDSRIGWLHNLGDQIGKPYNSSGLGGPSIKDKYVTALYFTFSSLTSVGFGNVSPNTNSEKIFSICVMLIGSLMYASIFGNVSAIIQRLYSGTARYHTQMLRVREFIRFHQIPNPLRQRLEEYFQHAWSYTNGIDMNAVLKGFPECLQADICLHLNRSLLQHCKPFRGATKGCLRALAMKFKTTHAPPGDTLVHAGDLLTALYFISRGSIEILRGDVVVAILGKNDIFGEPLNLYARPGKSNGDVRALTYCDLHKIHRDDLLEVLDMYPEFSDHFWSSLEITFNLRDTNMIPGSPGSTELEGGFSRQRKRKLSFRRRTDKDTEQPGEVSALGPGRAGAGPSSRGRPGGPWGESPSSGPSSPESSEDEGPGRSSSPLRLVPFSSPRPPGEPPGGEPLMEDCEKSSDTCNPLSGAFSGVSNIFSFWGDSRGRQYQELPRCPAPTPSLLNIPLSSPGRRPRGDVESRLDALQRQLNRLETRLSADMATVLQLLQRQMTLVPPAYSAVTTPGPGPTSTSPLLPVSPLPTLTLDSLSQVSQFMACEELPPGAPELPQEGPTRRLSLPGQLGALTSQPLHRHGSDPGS
GSK3β (Glycogen synthase kinase-3 beta), sequence (P49841 whole entry): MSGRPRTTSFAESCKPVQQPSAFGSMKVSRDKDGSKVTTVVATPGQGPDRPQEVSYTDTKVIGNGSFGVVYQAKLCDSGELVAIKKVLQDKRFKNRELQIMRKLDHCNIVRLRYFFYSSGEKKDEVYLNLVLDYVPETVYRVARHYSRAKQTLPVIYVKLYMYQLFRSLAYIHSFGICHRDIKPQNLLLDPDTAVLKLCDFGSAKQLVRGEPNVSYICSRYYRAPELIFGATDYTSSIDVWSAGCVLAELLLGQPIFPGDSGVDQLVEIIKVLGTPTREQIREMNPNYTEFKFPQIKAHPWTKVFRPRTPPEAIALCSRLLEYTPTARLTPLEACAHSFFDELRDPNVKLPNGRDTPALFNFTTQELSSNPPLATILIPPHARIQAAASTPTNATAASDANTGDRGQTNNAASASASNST
T2 sequence (Q8NBP7 with tags, fused parts or gaps V474I/G670E): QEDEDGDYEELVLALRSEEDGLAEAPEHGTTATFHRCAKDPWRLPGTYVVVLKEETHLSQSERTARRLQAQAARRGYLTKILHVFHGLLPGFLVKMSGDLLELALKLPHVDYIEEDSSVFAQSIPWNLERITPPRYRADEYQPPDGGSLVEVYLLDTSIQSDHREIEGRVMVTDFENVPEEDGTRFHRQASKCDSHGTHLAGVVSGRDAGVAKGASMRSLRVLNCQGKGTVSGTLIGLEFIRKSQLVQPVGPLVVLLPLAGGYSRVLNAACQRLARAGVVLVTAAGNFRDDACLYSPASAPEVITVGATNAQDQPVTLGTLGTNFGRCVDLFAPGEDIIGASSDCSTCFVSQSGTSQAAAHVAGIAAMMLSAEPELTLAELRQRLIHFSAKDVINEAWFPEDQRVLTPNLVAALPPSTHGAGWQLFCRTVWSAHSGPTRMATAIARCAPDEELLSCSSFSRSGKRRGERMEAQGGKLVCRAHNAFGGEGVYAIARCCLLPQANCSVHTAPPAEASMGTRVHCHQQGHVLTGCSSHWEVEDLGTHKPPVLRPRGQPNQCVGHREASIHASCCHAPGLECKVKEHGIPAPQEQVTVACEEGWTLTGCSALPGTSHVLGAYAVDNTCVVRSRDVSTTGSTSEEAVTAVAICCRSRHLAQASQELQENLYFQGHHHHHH

| Compound | IC50 [1] [µM] | IC50 [2] [µM] | IC50 [3] [µM] | EC50 [4] [µM] |
| --- | --- | --- | --- | --- |
| Cn1c(=O)n(-c2ccc(N[C@H]3CC[C@H](Nc4cnc(OC(F)F)cn4)C3)nc2)c2ncccc21 [Example 96, 3-(6-(((1S,3S)-3-((5-(Difluoromethoxy)pyrazin-2-yl)amino)cyclopentyl)amino)pyridin-3-yl)-1-methyl-1,3-dihydro-2H-imidazo[4,5-b]pyridin-2-one] | > 10 | 12.2 | 0.0073 | 0.7 |
| Cc1cccn(-c2ccc(N[C@H]3CC[C@H](Nc4cnc(OC(F)F)cn4)C3)nc2)c1=O [Example 84, 6′-(((1S,3S)-3-((5-(Difluoromethoxy)pyrazin-2-yl)amino)cyclopentyl)amino)-3-methyl-2H-[1,3′-bipyridin]-2-one] | > 10 | 6.9 | 0.011 | 0.7 |
| O=c1ccc(-c2nnn[nH]2)cn1-c1ccc(N[C@H]2CC[C@H](Nc3cnc(Cl)cn3)C2)nc1 [Example 179, 6′-(((1S,3S)-3-((5-Chloropyrazin-2-yl)amino)cyclopentyl)amino)-5-(1H-tetrazol-5-yl)-2H-[1,3′-bipyridin]-2-one] | 6.9 | – | 0.0047 | 0.1 |
| O=C1CC[C@H](CO)N1c1ccc(N[C@H]2CC[C@H](Nc3cnc(OC(F)F)cn3)C2)nc1 [Example 77, (R)-1-(6-(((1S,3S)-3-((5-(Difluoromethoxy)pyrazin-2-yl)amino)cyclopentyl)amino)pyridin-3-yl)-5-(hydroxymethyl)pyrrolidin-2-one] | > 10 | > 40 | 1.53 | – |
| Cc1cnc(N[C@H]2CC[C@H](Nc3ccc(-n4cc(-c5cnn(C)c5)ccc4=O)cn3)C2)cn1 [Example 206, 5-(1-Methyl-1H-pyrazol-4-yl)-6′-(((1S,3S)-3-((5-methylpyrazin-2-yl)amino)cyclopentyl)amino)-2H-[1,3′-bipyridin]-2-one] | > 10 | > 40.1 | 0.022 | – |
| CCSc1cnc(N[C@H]2CC[C@H](Nc3ccc(-n4ccccc4=O)cn3)C2)cn1 [Example 163, 6′-(((1S,3S)-3-((5-(Ethylthio)pyrazin-2-yl)amino)cyclopentyl)amino)-2H-[1,3′-bipyridin]-2-one] | > 10 | 30.7 | 0.14 | – |
| COc1ccc(=O)n(-c2ccc(N[C@H]3CC[C@H](Nc4cnc(OC(F)F)cn4)C3)nc2)c1 [Example 95, 6′-(((1S,3S)-3-((5-(Difluoromethoxy)pyrazin-2-yl)amino)cyclopentyl)amino)-5-methoxy-2H-[1,3′-bipyridin]-2-one] | 0.115 | 11.1 | 0.114 | – |
| N#Cc1ccc(=O)n(-c2ccc(N[C@H]3CC[C@H](Nc4cnc(Cl)cn4)C3)nc2)c1 [Example 99, 6′-(((1S,3S)-3-((5-Chloropyrazin-2-yl)amino)cyclopentyl)amino)-2-oxo-2H-[1,3′-bipyridine]-5-carbonitrile] | > 10 | 19.9 | 0.04 | – |
| C[C@@]12C[C@]1(C)C(=O)N(c1ccc(N[C@H]3CC[C@H](Nc4cnc(OC(F)F)cn4)C3)nc1)C2=O [Example 80, (cis)-3-(6-(((1S,3S)-3-((5-(Difluoromethoxy)pyrazin-2-yl)amino)cyclopentyl)amino)pyridin-3-yl)-1,5-dimethyl-3-azabicyclo[3.1.0]hexane-2,4-dione] | > 10 | > 40 | 1.03 | – |
| Cc1cnc(N[C@H]2CC[C@H](Nc3ccc(-n4cccc(-c5c[nH]nn5)c4=O)cn3)C2)cn1 [Example 205, 6′-(((1S,3S)-3-((5-Methylpyrazin-2-yl)amino)cyclopentyl)amino)-3-(1H-1,2,3-triazol-4-yl)-2H-[1,3′-bipyridin]-2-one] | > 10 | > 40.1 | 0.007 | – |
| Cc1cnc(N[C@H]2CC[C@H](Nc3ccc(N4C(=O)CN(C)C4=O)cn3)C2)cn1 [Example 41, 1-Methyl-3-(6-(((1S,3S)-3-((5-methylpyrazin-2-yl)amino)cyclopentyl)amino)pyridin-3-yl)imidazolidine-2,4-dione] | > 10 | > 40 | 0.057 | – |
| Cc1cnc(N[C@H]2CC[C@H](Nc3ccc(N4C(=O)CCc5cccnc54)cn3)C2)cn1 [Example 276, 1-(6-(((1S,3S)-3-((5-Methylpyrazin-2-yl)amino)cyclopentyl)amino)pyridin-3-yl)-3,4-dihydro-1,8-naphthyridin-2 (1H)-one] | > 10 | > 40 | 0.08 | – |
| O=c1ccc(Cl)cn1-c1ccc(N[C@H]2CC[C@H](Nc3cnc(C4CC4)cn3)C2)nc1 [Example 109, 5-Chloro-6′-(((1S,3S)-3-((5-Cyclopropylpyrazin-2-yl)amino)cyclopentyl)amino)-2H-[1,3′-bipyridin]-2-one] | > 10 | 19.9 | 0.041 | – |
| Cn1ccc2nc(N[C@H]3CC[C@H](Nc4ccc(-n5ccccc5=O)cn4)C3)cnc21 [Example 7, 6′-(((1S,3S)-3-((5-Methyl-5H-pyrrolo[2,3-b]pyrazin-2-yl)amino)cyclopentyl)amino)-2H-[1,3′-bipyridin]-2-one] | > 10 | > 40 | 3.5 | – |
